Like-named read-outs stand apart in the source and are kept apart here.

Consider one molecule from patent US9144239B2, “Macrocyclic picolinamides as fungicides” (DOW AGROSCIENCES LLC, priority 2012, dated 2015).

Format in all cases: in vivo
The test system of test [1] is Mycosphaerella graminicola; anamorph: Septoria tritici. As to the kind of experiment: Fungicidal activity: leaf blotch of wheat (SEPTTR), wheat seedlings. Conditions: Zymoseptoria tritici, 100 ppm, wheat. A digest of the protocol:
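Compounds in acetone were diluted with nine volumes of water containing 110 ppm Triton X-100 and sprayed to run-off on Yuma wheat seedlings at first-leaf stage. Septoria tritici spores were inoculated before or after treatment, followed by dew chambers at 100% RH and 20 °C, then greenhouse at 20 °C. Severity (0–100%) was scored once untreated plants were fully diseased; control was calculated relative to untreated plants.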

For test [2], the system named is Puccinia triticina; synonym: Puccinia recondita f. sp. tritici. As to the kind of experiment: Fungicidal activity: wheat brown rust (PUCCRT), wheat seedlings. The note with it: 100 ppm, wheat. A digest of the protocol: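 Wheat (Yuma) seedlings at first-leaf stage, inoculated with Puccinia triticina spores before or after treatment, held overnight in dark dew room at 22° C, 100% RH, then greenhouse at 24° C. Acetone solutions diluted with nine volumes water containing 110 ppm Triton X-100, sprayed to run-off. Percent disease control derived from severity (0–100%) relative to untreated plants.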

The next test deals with Leptosphaeria nodorum. Put plainly: Fungicidal activity: wheat glume blotch (LEPTNO). The note with it: Parastagonospora nodorum, 24 h, 1 Day Protectant, read-out: Disease Control LEPTNO 1 DP. The protocol: Technical grades of materials were dissolved in acetone, which were then mixed with nine volumes of water containing 110 ppm Triton X-100. The fungicide solutions were applied onto wheat seedlings using an automated booth sprayer to run-off. All sprayed plants were allowed to air dry prior to further handling. Wheat plants (variety Yuma) were grown from seed in a greenhouse in 50% mineral soil/50% soil-less Metro mix until the first leaf was fully emerged, with 7-10 seedlings per pot. These plants were inoculated with an aqueous spore suspension of Septoria tritici either prior to or after fungicide treatments. After inoculation the plants were kept in 100% relative humidity (one day in a dark dew chamber followed by two to three days in a lighted dew chamber at 20° C.) to permit spores to germinate and infect the leaf. The plants were then transferred to a greenhouse set at 20° C. for disease to develop. When disease symptoms were fully expressed on the 1st leaves of untreated plants, infection levels were assessed on a scale of 0 to 100 percent disease severity. Percent disease control was calculated using the ratio of disease severity on treated plants relative to untreated plants. Evaluation of Fungicidal Activity: Wheat Glume Blotch (Leptosphaeria nodorum; Bayer Code […]) Wheat plants (variety Yuma) were grown from seed in a greenhouse in 50% mineral soil/50% soil-less Metro mix until the first leaf was fully emerged, with 7-10 seedlings per pot. These plants were inoculated with an aqueous spore suspension of Leptosphaeria nodorum 24 hr after fungicide treatments. After inoculation the plants were kept in 100% relative humidity (one day in a dark dew chamber followed by two days in a lighted dew chamber at 20° C.) to permit spores to germinate and infect the leaf. The plants were then transferred to a greenhouse set at 20° C. for disease to develop. Fungicide formulation, application and disease assessment followed the procedures as described in the Example A.

Another test deals with Cercospora beticola. As to the kind of experiment: Fungicidal activity: leaf spot of sugar beets (CERCBE). Conditions: 24 h, 1 Day Protectant, sugar beet, read-out: Disease Control CERCBE 1DP. On the procedure: Technical grades of materials were dissolved in acetone, which were then mixed with nine volumes of water containing 110 ppm Triton X-100. The fungicide solutions were applied onto wheat seedlings using an automated booth sprayer to run-off. All sprayed plants were allowed to air dry prior to further handling. Wheat plants (variety Yuma) were grown from seed in a greenhouse in 50% mineral soil/50% soil-less Metro mix until the first leaf was fully emerged, with 7-10 seedlings per pot. These plants were inoculated with an aqueous spore suspension of Septoria tritici either prior to or after fungicide treatments. After inoculation the plants were kept in 100% relative humidity (one day in a dark dew chamber followed by two to three days in a lighted dew chamber at 20° C.) to permit spores to germinate and infect the leaf. The plants were then transferred to a greenhouse set at 20° C. for disease to develop. When disease symptoms were fully expressed on the 1st leaves of untreated plants, infection levels were assessed on a scale of 0 to 100 percent disease severity. Percent disease control was calculated using the ratio of disease severity on treated plants relative to untreated plants. Evaluation of Fungicidal Activity: Leaf Spot of Sugar Beets (Cercospora beticola; Bayer Code CERCBE) Sugar beet plants (variety HH88) were grown in soil-less Metro mix and trimmed regularly to maintain a uniform plant size prior to test. Plants were inoculated with a spore suspension 24 hr after fungicide treatments. Inoculated plants were kept in a dew chamber at 22° C. for 48 hr then incubated in a greenhouse set at 24° C. under a clear plastic hood with bottom ventilation until disease symptoms were fully expressed. Fungicide formulation, application and disease assessment on the sprayed leaves followed the procedures as described in the Example A.

For test [3], the system named is Blumeria graminis f.sp. hordei; synonym: Erysiphe graminis f.sp. hordei. Put plainly: Fungicidal activity: barley powdery mildew (ERYSGH). Conditions: 24 h, 1 Day Protectant, read-out: Disease Control ERYSGH 1DP. On the procedure: Technical grades of materials were dissolved in acetone, which were then mixed with nine volumes of water containing 110 ppm Triton X-100. The fungicide solutions were applied onto wheat seedlings using an automated booth sprayer to run-off. All sprayed plants were allowed to air dry prior to further handling. Wheat plants (variety Yuma) were grown from seed in a greenhouse in 50% mineral soil/50% soil-less Metro mix until the first leaf was fully emerged, with 7-10 seedlings per pot. These plants were inoculated with an aqueous spore suspension of Septoria tritici either prior to or after fungicide treatments. After inoculation the plants were kept in 100% relative humidity (one day in a dark dew chamber followed by two to three days in a lighted dew chamber at 20° C.) to permit spores to germinate and infect the leaf. The plants were then transferred to a greenhouse set at 20° C. for disease to develop. When disease symptoms were fully expressed on the 1st leaves of untreated plants, infection levels were assessed on a scale of 0 to 100 percent disease severity. Percent disease control was calculated using the ratio of disease severity on treated plants relative to untreated plants. Evaluation of Fungicidal Activity: Barley Powdery Mildew (Blumeria graminis f.sp. hordei; Synonym: Erysiphe graminis f.sp. hordei; Bayer Code […]) Barley seedlings (variety Harrington) were propagated in soil-less Metro mix, with each pot having 8 to 12 plants, and used in the test when first leaf was fully emerged. Test plants were inoculated by dusting with infected stock plants 24 hr after fungicide treatments. After inoculation the plants were kept in a greenhouse set at 20° C. for disease to develop. Fungicide formulation, application and disease assessment on the sprayed leaves followed the procedures as described in the Example A.

Take `COc1ccnc(C(=O)N[C@H]2COC[C@H](Oc3ccc(F)cc3)[C@@H](OCC(C)C)[C@H](C)OC2=O)c1OCOC(C)=O` [Compound 228]: the pest or weed control at 100 ppm in test [1] (24 h, 1 Day Protectant, read-out: Disease Control SEPTTR 1DP) was 80 to 100%; in test [1] (72 h, 3 Day Curative, read-out: Disease Control SEPTTR 3DC) it was 80 to 100%; in test [2] (24 h, 1 Day Protectant, read-out: Disease Control PUCCRT 1DP), 80 to 100%; in test [2] (72 h, 3 Day Curative, read-out: Disease Control PUCCRT 3DC), 80 to 100%; in the test with Leptosphaeria nodorum it was 80 to 100%; in the test with Cercospora beticola, 0 to 80%. Besides, the pest or weed control at 100 ppm in test [3] lay in the range of 0 to 80%.
